{"source": "patent US10500202B2", "about": "“Pharmaceutical formulation containing tadalafil” (Druggability Technologies IP Holdco Limited, priority 2016, dated 2019)", "key": {"[1]": {"conditions": "cited from earlier work"}, "[2]": {"conditions": "cited from earlier work", "remark": "listed apart in the source"}, "PAMPA permeability": {"assay": "PAMPA permeability", "type": "in vitro ADME", "procedure": "PAMPA permeability of the selected compositions was measured in order to select the pharmaceutical Tadalafil compositions having the best in-vitro performance (FIG. 2). PAMPA permeability measurements were performed as described by M. Kansi et al. (Journal of medicinal chemistry, 41, (1998) pp 1007) with modifications based on S. Bendels et al (Pharmaceutical research, 23 (2006) pp 2525). Permeability was measured in a 96-well plate assay across an artificial membrane composed of dodecane with 20% soy lecithin supported by a PVDF membrane (Millipore, USA). The receiver compartment was phosphate buffered saline (pH 7.0) supplemented with 1% sodium dodecyl sulfate. The assay was performed at room temperature; incubation time was 4 hours in ultrapurified water or 10-20 and 30 minutes in simulates saliva, respectively. The concentration in the receiver compartment was determined by UV-VIS spectrophotometry (Thermo Scientific Genesys S10).\nPAMPA permeabilities of Tadalafil pharmaceutical compositions in water (H2O), FaSSIF (Fa) and FeSSIF (Fe) media were above 7.6×10^−6 cm/s, 7.2×10^−6 cm/s and 4.3×10^−6 cm/s, respectively, while it was 0.6×10^−6 cm/s, 0.6×10^−6 cm/s and 0.8*10^−6 cm/s in water, FaSSIF and FeSSIF media for the unformulated, crystalline reference. PAMPA permeability of Cialis® in water, FaSSIF and FeSSIF media was above 0.9×10^−6 cm/s, 0.8×10^−6 cm/s and 1.1×10^−6 cm/s, respectively.\nPAMPA permeability of the solid Tadalafil pharmaceutical compositions was used to monitor the physical stability of the pharmaceutical formulation. PAMPA permeability was measured after storage at different conditions."}, "[3]": {"conditions": "10 mg/kg, beagle dog, cited from earlier work"}}, "note": "Read-outs that look alike come from different tables or passages of the source."}
{"molecule": "CN1CC(=O)N2[C@H](c3ccc4c(c3)OCO4)c3[nH]c4ccccc4c3C[C@@H]2C1=O", "note": "[Tadalafil]", "values": [{"measurement": "Solubility", "setting": "[1]; ethanol", "result": "very slightly soluble"}, {"measurement": "Solubility", "setting": "[1]; water", "result": "practically insoluble"}, {"measurement": "Exposure (AUC) versus dose", "setting": "[2]; dose range of 2.5 to 20 mg, healthy subjects", "result": "increases proportionally with dose"}, {"measurement": "Fraction of administered dose in semen", "setting": "[2]; healthy subjects", "result": "Less than 0.0005%"}, {"measurement": "Mean oral clearance", "setting": "[2]; healthy subjects", "result": 2.5, "unit": "L/h"}, {"measurement": "Mean terminal half-life", "setting": "[2]; healthy subjects", "result": 17.5, "unit": "h"}, {"measurement": "Steady-state exposure relative to a single dose", "setting": "[2]; once-daily dosing", "result": "approximately 1.6 fold"}, {"measurement": "Time to steady-state plasma concentrations", "setting": "[2]; once-daily dosing", "result": "≤ 5", "unit": "days"}, {"measurement": "Mean apparent volume of distribution", "setting": "[2]; oral administration", "result": "approximately 63 L"}, {"measurement": "Effect of food on rate and extent of absorption", "setting": "[2]; oral", "result": "not influenced by food"}, {"measurement": "Excretion in the feces", "setting": "[2]; predominantly as metabolites", "result": "approximately 61 % of the dose"}, {"measurement": "Excretion in the urine", "setting": "[2]; predominantly as metabolites", "result": "approximately 36 % of the dose"}, {"measurement": "tmax values", "setting": "[2]; range", "result": "0.5 to 6", "unit": "h"}, {"measurement": "Fraction in plasma bound to proteins", "setting": "[2]; therapeutic concentrations", "result": 94, "unit": "%"}, {"measurement": "Papp", "setting": "PAMPA permeability; pH 7, FaSSIF", "result": 0.6, "unit": "×10⁻⁶ cm/s"}, {"measurement": "Papp", "setting": "PAMPA permeability; pH 7, FeSSIF", "result": 0.8, "unit": "×10⁻⁶ cm/s"}, {"measurement": "Papp at 4 h", "setting": "PAMPA permeability; pH 7, Water", "result": 0.6, "unit": "×10⁻⁶ cm/s"}, {"measurement": "Estimated F", "setting": "[3]; iv, published (reference)", "result": 100, "unit": "%"}, {"measurement": "AUC24", "setting": "[3]; iv, published", "result": 22894, "unit": "ng·h/mL"}, {"measurement": "Cmax", "setting": "[3]; iv, published", "result": 3663, "unit": "ng/mL"}, {"measurement": "AUC24", "setting": "[3]; oral, published", "result": "4109 ± 3141", "unit": "ng·h/mL"}, {"measurement": "Cmax", "setting": "[3]; oral, published", "result": "526 ± 281", "unit": "ng/mL"}, {"measurement": "Estimated F", "setting": "[3]; oral, published", "result": 18, "unit": "%"}, {"measurement": "tmax", "setting": "[3]; oral, published", "result": 3, "unit": "h"}]}
{"molecule": "Cc1cccc(O)c1O", "note": "[Methylcatechol]", "values": [{"measurement": "Methylcatechol concentrations relative to glucuronide concentrations", "setting": "[2]; circulating metabolites of Tadalafil", "result": "less than 10%"}]}
